Test results published in ChEMBL document CHEMBL1156230, “Identification of phenylsulfone-substituted quinoxaline (WYE-672) as a tissue selective liver X-receptor (LXR) agonist” (J Med Chem, 2010).
Active and inactive are the calls of the source. The calls are words filed in the database; no cut-off is given here.

Assays:
Mus musculus [1] = experiment: Antiatherosclerotic activity against high fat/high cholesterol fed LDLR-deficient mouse duodenum assessed as induction of ABCA1 expression at 0.6 mg/kg administered with diet for 8 weeks; assay type: functional, organism-based; parameters: dose 0.6 mg/kg
Mus musculus [2] = experiment: Antiatherosclerotic activity against high fat/high cholesterol fed LDLR-deficient mouse duodenum assessed as induction of ABCA1 expression at 3 mg/kg administered with diet for 8 weeks; assay type: functional, organism-based; parameters: dose 3 mg/kg
Mus musculus [3] = experiment: Antiatherosclerotic activity against high fat/high cholesterol fed LDLR-deficient mouse duodenum assessed as induction of ABCG5 expression at 3 mg/kg administered with diet for 8 weeks; assay type: functional, organism-based; parameters: dose 3 mg/kg
Mus musculus [4] = experiment: Antiatherosclerotic activity against high fat/high cholesterol fed LDLR-deficient mouse duodenum assessed as induction of ABCG8 expression at 3 mg/kg administered with diet for 8 weeks; assay type: functional, organism-based; parameters: dose 3 mg/kg
Mus musculus [5] = experiment: Antiatherosclerotic activity against high fat/high cholesterol fed LDLR-deficient mouse duodenum assessed as induction of ABCG8 expression at 10 mg/kg administered with diet for 8 weeks; assay type: functional, organism-based; parameters: dose 10 mg/kg
Mus musculus [6] = experiment: Antiatherosclerotic activity against high fat/high cholesterol fed LDLR-deficient mouse duodenum assessed as induction of SREBP-1c expression at 0.6 mg/kg administered with diet for 8 weeks; assay type: functional, organism-based; parameters: dose 0.6 mg/kg
Mus musculus [7] = experiment: Antiatherosclerotic activity against high fat/high cholesterol fed LDLR-deficient mouse duodenum assessed as induction of SREBP-1c expression at 10 mg/kg administered with diet for 8 weeks; assay type: functional, organism-based; parameters: dose 10 mg/kg
Mus musculus [8] = experiment: Antiatherosclerotic activity against high fat/high cholesterol fed LDLR-deficient mouse macrophages assessed as induction of ABCA1 expression at 10 mg/kg administered with diet for 8 weeks; assay type: functional, organism-based; parameters: dose 10 mg/kg
Mus musculus [9] = experiment: Antiatherosclerotic activity against high fat/high cholesterol fed LDLR-deficient mouse macrophages assessed as induction of ABCG1 expression at 10 mg/kg administered with diet for 8 weeks; assay type: functional, organism-based; parameters: dose 10 mg/kg
Mus musculus [10] = experiment: Antiatherosclerotic activity against high fat/high cholesterol fed LDLR-deficient mouse macrophages assessed as induction of ABCG1 expression at 0.6 mg/kg administered with diet for 8 weeks; assay type: functional, organism-based; parameters: dose 0.6 mg/kg
Mus musculus [11] = experiment: Antiatherosclerotic activity against high fat/high cholesterol fed LDLR-deficient mouse assessed as abca1 gene regulation at 0.6 mg/kg administered with diet for 7 days by Experion chip analysis; assay type: functional, organism-based; parameters: dose 0.6 mg/kg
Mus musculus [12] = experiment: Antiatherosclerotic activity against high fat/high cholesterol fed LDLR-deficient mouse assessed as abcg1 gene regulation at 0.6 mg/kg administered with diet for 7 days by Experion chip analysis; assay type: functional, organism-based; parameters: dose 0.6 mg/kg
Mus musculus [13] = experiment: Antiatherosclerotic activity against high fat/high cholesterol fed LDLR-deficient mouse assessed as apo5 gene regulation at 0.6 mg/kg administered with diet for 7 days by Experion chip analysis; assay type: functional, organism-based; parameters: dose 0.6 mg/kg
Mus musculus [14] = experiment: Antiatherosclerotic activity against high fat/high cholesterol fed LDLR-deficient mouse assessed as apoe gene regulation at 0.6 mg/kg administered with diet for 7 days by Experion chip analysis; assay type: functional, organism-based; parameters: dose 0.6 mg/kg
Mus musculus [15] = experiment: Antiatherosclerotic activity against high fat/high cholesterol fed LDLR-deficient mouse assessed as cyp7a1 gene regulation at 0.6 mg/kg administered with diet for 7 days by Experion chip analysis; assay type: functional, organism-based; parameters: dose 0.6 mg/kg
Mus musculus [16] = experiment: Antiatherosclerotic activity against high fat/high cholesterol fed LDLR-deficient mouse assessed as Fasn gene regulation at 0.6 mg/kg administered with diet for 7 days by Experion chip analysis; assay type: functional, organism-based; parameters: dose 0.6 mg/kg
Mus musculus [17] = experiment: Antiatherosclerotic activity against high fat/high cholesterol fed LDLR-deficient mouse assessed as Lipc gene regulation at 0.6 mg/kg administered with diet for 7 days by Experion chip analysis; assay type: functional, organism-based; parameters: dose 0.6 mg/kg
Mus musculus [18] = experiment: Antiatherosclerotic activity against high fat/high cholesterol fed LDLR-deficient mouse assessed as lipg gene regulation at 0.6 mg/kg administered with diet for 7 days by Experion chip analysis; assay type: functional, organism-based; parameters: dose 0.6 mg/kg
Mus musculus [19] = experiment: Antiatherosclerotic activity against high fat/high cholesterol fed LDLR-deficient mouse assessed as IPl gene regulation at 0.6 mg/kg administered with diet for 7 days by Experion chip analysis; assay type: functional, organism-based; parameters: dose 0.6 mg/kg
Mus musculus [20] = experiment: Antiatherosclerotic activity against high fat/high cholesterol fed LDLR-deficient mouse assessed as pcsk9 gene regulation at 0.6 mg/kg administered with diet for 7 days by Experion chip analysis; assay type: functional, organism-based; parameters: dose 0.6 mg/kg
Mus musculus [21] = experiment: Antiatherosclerotic activity against high fat/high cholesterol fed LDLR-deficient mouse assessed as scab1 gene regulation at 0.6 mg/kg administered with diet for 7 days by Experion chip analysis; assay type: functional, organism-based; parameters: dose 0.6 mg/kg
Mus musculus [22] = experiment: Antiatherosclerotic activity against high fat/high cholesterol fed LDLR-deficient mouse assessed as Irp1 gene regulation at 10 mg/kg administered with diet for 7 days by Experion chip analysis; assay type: functional, organism-based; parameters: dose 10 mg/kg
Mus musculus [23] = experiment: Antiatherosclerotic activity against high fat/high cholesterol fed LDLR-deficient mouse assessed as pcsk9 gene regulation at 10 mg/kg administered with diet for 7 days by Experion chip analysis; assay type: functional, organism-based; parameters: dose 10 mg/kg
Mus musculus [24] = experiment: Antiatherosclerotic activity against high fat/high cholesterol fed LDLR-deficient mouse assessed as srebf1 gene regulation at 10 mg/kg administered with diet for 7 days by Experion chip analysis; assay type: functional, organism-based; parameters: dose 10 mg/kg
Mus musculus [25] = experiment: Antiatherosclerotic activity against high fat/high cholesterol fed LDLR-deficient mouse assessed as srebf1 gene regulation at 0.6 mg/kg administered with diet for 7 days by Experion chip analysis; assay type: functional, organism-based; parameters: dose 0.6 mg/kg
Mus musculus [26] = experiment: Antiatherosclerotic activity against high fat/high cholesterol fed LDLR-deficient mouse assessed as apoe gene regulation at 3 mg/kg administered with diet for 7 days by Experion chip analysis; assay type: functional, organism-based; parameters: dose 3 mg/kg
Mus musculus [27] = experiment: Antiatherosclerotic activity against high fat/high cholesterol fed LDLR-deficient mouse assessed as cyp7a1 gene regulation at 3 mg/kg administered with diet for 7 days by Experion chip analysis; assay type: functional, organism-based; parameters: dose 3 mg/kg
Mus musculus [28] = experiment: Antiatherosclerotic activity against high fat/high cholesterol fed LDLR-deficient mouse assessed as Fasn gene regulation at 3 mg/kg administered with diet for 7 days by Experion chip analysis; assay type: functional, organism-based; parameters: dose 3 mg/kg
Mus musculus [29] = experiment: Antiatherosclerotic activity against high fat/high cholesterol fed LDLR-deficient mouse assessed as ldlr gene regulation at 3 mg/kg administered with diet for 7 days by Experion chip analysis; assay type: functional, organism-based; parameters: dose 3 mg/kg
Mus musculus [30] = experiment: Antiatherosclerotic activity against high fat/high cholesterol fed LDLR-deficient mouse assessed as Lipc gene regulation at 3 mg/kg administered with diet for 7 days by Experion chip analysis; assay type: functional, organism-based; parameters: dose 3 mg/kg
Mus musculus [31] = experiment: Antiatherosclerotic activity against high fat/high cholesterol fed LDLR-deficient mouse assessed as Irp1 gene regulation at 3 mg/kg administered with diet for 7 days by Experion chip analysis; assay type: functional, organism-based; parameters: dose 3 mg/kg
Mus musculus [32] = experiment: Antiatherosclerotic activity against high fat/high cholesterol fed LDLR-deficient mouse assessed as pcsk9 gene regulation at 3 mg/kg administered with diet for 7 days by Experion chip analysis; assay type: functional, organism-based; parameters: dose 3 mg/kg
Mus musculus [33] = experiment: Antiatherosclerotic activity against high fat/high cholesterol fed LDLR-deficient mouse assessed as srebf1 gene regulation at 3 mg/kg administered with diet for 7 days by Experion chip analysis; assay type: functional, organism-based; parameters: dose 3 mg/kg
Mus musculus [34] = experiment: Antiatherosclerotic activity against high fat/high cholesterol fed LDLR-deficient mouse assessed as abcg5 gene regulation at 10 mg/kg administered with diet for 7 days by Experion chip analysis; assay type: functional, organism-based; parameters: dose 10 mg/kg
Mus musculus [35] = experiment: Antiatherosclerotic activity against high fat/high cholesterol fed LDLR-deficient mouse assessed as adfp gene regulation at 10 mg/kg administered with diet for 7 days by Experion chip analysis; assay type: functional, organism-based; parameters: dose 10 mg/kg
Mus musculus [36] = experiment: Antiatherosclerotic activity against high fat/high cholesterol fed LDLR-deficient mouse assessed as apoe gene regulation at 10 mg/kg administered with diet for 7 days by Experion chip analysis; assay type: functional, organism-based; parameters: dose 10 mg/kg
Mus musculus [37] = experiment: Antiatherosclerotic activity against high fat/high cholesterol fed LDLR-deficient mouse assessed as abcg1 gene regulation at 3 mg/kg administered with diet for 8 weeks by Experion chip analysis
Mus musculus [38] = experiment: Antiatherosclerotic activity against high fat/high cholesterol fed LDLR-deficient mouse assessed as abcg8 gene regulation at 3 mg/kg administered with diet for 8 weeks by Experion chip analysis

Compound: O=C(O)Cc1cccc(OCCCN(Cc2cccc(C(F)(F)F)c2Cl)CC(c2ccccc2)c2ccccc2)c1
- Activity (Mus musculus [1]): Active
- Activity (Mus musculus [2]): Active
- Activity (Mus musculus [3]): Active
- Activity (Mus musculus [4]): Active
- Activity (Mus musculus [5]): Active
- Activity (Mus musculus [6]): Active
- Activity (Mus musculus [7]): Active
- Activity (Mus musculus [8]): Active
- Activity (Mus musculus [9]): Active
- Activity (Mus musculus [10]): Active
- Activity (Mus musculus [11]): Active
- Activity (Mus musculus [12]): Active
- Activity (Mus musculus [13]): Active
- Activity (Mus musculus [14]): Active
- Activity (Mus musculus [15]): Active
- Activity (Mus musculus [16]): Active
- Activity (Mus musculus [17]): Active
- Activity (Mus musculus [18]): Active
- Activity (Mus musculus [19]): Active
- Activity (Mus musculus [20]): Active
- Activity (Mus musculus [21]): Active
- Activity (Mus musculus [22]): Active
- Activity (Mus musculus [23]): Active
- Activity (Mus musculus [24]): Active
- Activity (Mus musculus [25]): Active
- Activity (Mus musculus [26]): Active
- Activity (Mus musculus [27]): Active
- Activity (Mus musculus [28]): Active
- Activity (Mus musculus [29]): Active
- Activity (Mus musculus [30]): Active
- Activity (Mus musculus [31]): Active
- Activity (Mus musculus [32]): Active
- Activity (Mus musculus [33]): inactive
- Activity (Mus musculus [34]): Active
- Activity (Mus musculus [35]): Active
- Activity (Mus musculus [36]): Active
- Activity (Mus musculus [37]): Active
- Activity (Mus musculus [38]): Active

Compound: Cc1nc2c(C(F)(F)F)cccc2nc1-c1ccc(-c2cccc(S(C)(=O)=O)c2)cc1
- Activity (Mus musculus [1]): Active
- Activity (Mus musculus [2]): Active
- Activity (Mus musculus [3]): Active
- Activity (Mus musculus [4]): Active
- Activity (Mus musculus [5]): Active
- Activity (Mus musculus [6]): inactive
- Activity (Mus musculus [7]): Active
- Activity (Mus musculus [8]): Active
- Activity (Mus musculus [9]): Active
- Activity (Mus musculus [10]): Active
- Activity (Mus musculus [11]): Active
- Activity (Mus musculus [12]): Active
- Activity (Mus musculus [13]): Active
- Activity (Mus musculus [14]): Active
- Activity (Mus musculus [15]): Active
- Activity (Mus musculus [16]): Active
- Activity (Mus musculus [18]): Active
- Activity (Mus musculus [19]): Active
- Activity (Mus musculus [20]): Active
- Activity (Mus musculus [21]): Active
- Activity (Mus musculus [22]): Active
- Activity (Mus musculus [23]): Active
- Activity (Mus musculus [24]): Active
- Activity (Mus musculus [25]): Active
- Activity (Mus musculus [26]): Active
- Activity (Mus musculus [27]): Active
- Activity (Mus musculus [28]): Active
- Activity (Mus musculus [29]): Active
- Activity (Mus musculus [30]): Active
- Activity (Mus musculus [31]): Active
- Activity (Mus musculus [32]): Active
- Activity (Mus musculus [33]): inactive
- Activity (Mus musculus [34]): Active
- Activity (Mus musculus [35]): Active
- Activity (Mus musculus [36]): Active
- Activity (Mus musculus [37]): Active
- Activity (Mus musculus [38]): Active
